For 13 molecules, melting point results are on record in patent US6809097B1, “Quinoline derivatives inhibiting the effect of growth factors such as VEGF” (Zeneca Limited, priority 1996, dated 2004).

As usually defined, the melting point is the temperature, or range, at which the solid turns liquid.

On to `COCCOc1cc2nccc(Nc3cc(O)c(C)cc3F)c2cc1C#N.Cl`, for which the melting point was in the range of 300 to 302 °C.

With `COc1cc2c(Nc3ccc(C)c(OC(C)=O)c3)ccnc2cc1OCc1ccccc1.Cl`, the melting point fell in the range of 230 to 232 °C.

In turn, `COc1cc2nccc(Nc3cc(O)c(Cl)cc3F)c2cc1OC.Cl` registered a melting point of 312 to 318 °C.

In the case of `COc1cc2c(Nc3ccc(Cl)cc3F)ccnc2cc1OCc1ccccc1.Cl`, the melting point was 222 to 225 °C.

Molecule `COc1cc2c(Nc3ccc(Cl)cc3F)ccnc2cc1OCCN(C)C.Cl` yielded a melting point of more than 250 °C.

As to `COc1cc2nccc(Nc3cccc(O)c3)c2cc1OC.Cl`, the melting point was 280 to 283 °C.

For the molecule `COc1cc2nccc(Nc3cc(O)c(C)cc3F)c2cc1OC.Cl`, the melting point was more than 280 °C.

Regarding `COCCOc1cc2nccc(Nc3ccc(C)c(O)c3)c2cc1C#N.Cl`, the melting point was 275 to 278 °C.

As to `COc1cc2nccc(Nc3cc(O)c(C)cc3F)c2cc1C#N.Cl`, the melting point was in the range of 278 to 281 °C.

Molecule `COCCOc1cc2nccc(Nc3ccc(Cl)cc3F)c2cc1C#N.Cl` yielded a melting point of 247 to 250 °C.

Take `COc1cc2c(Oc3cc(O)c(C)cc3F)ccnc2cc1OCCCN1CCOCC1` [Example 3, 4-(2-fluoro-5-hydroxy-4-methylphenoxy)-6-methoxy-7-(3-morpholinopropoxy)quinoline]: the melting point was in the range of 210 to 217 °C.

For the molecule `COc1cc2nccc(Oc3cccc(O)c3)c2cc1OC` [Example 26, 6,7-dimethoxy-4-(3-hydroxyphenoxy)quinoline], the melting point was 140 °C.

On to `COCCOc1cc2nccc(Oc3cccc(O)c3)c2cc1C#N` [Example 50, 6-cyano-4-(3-hydroxyphenoxy)-7-(2-methoxyethoxy)quinoline], for which the melting point was 159 to 163 °C.
